Source: US20120107428A1, “REPELLENTS FOR PESTIFEROUS SOCIAL WASPS” (Sterling International Inc., priority 2010, published 2012)
Structures can show the parent of a compound that is named as a salt.

Columns and labels:
[1] = tested on: worker antennae of Vespula pensylvanica, Dolichovespula maculata, Polistes dominulus, and P. aurifer; assay: GC-EAD/MS analysis of SPME headspace samples of essential oils: antennal responses; conditions: for antennal (EAD) response to component of rosemary oil: V. pensylvanica and D. maculata antennae, FIG. 3; for antennal (EAD) response to component of spearmint oil / antennal (EAD) response to component of pennyroyal oil / antennal (EAD) response to component of geranium oil: V. pensylvanica, D. maculata, P. dominulus, or P. aurifer antennae; for antennal (EAD) response to component of lemongrass oil: antennae of V. pensylvanica, D. maculata, and Polistes dominulus, FIG. 2
Procedure: Headspace volatiles from greater than 10 types of essential oils (1 ml each in a closed 20 ml glass vial) were sampled via Solid-Phase Micro-Extraction (SPME) (CAR/PDMS, 85 μm, Supelco, Bellefonte, Pa.) for 20-30 sec before GC-EAD and GC-MS analyses.
Paper wasp [European paper wasp (Polistes dominulus) or golden paper wasp (P. aurifer)] and yellowjacket [Western yellowjacket (Vespula pensylvanica) or Bald-faced hornet (Dolichovespula maculata)] workers for electrophysiological study were collected from their nests and kept alive at 4° C. before testing.
SPME samples of the various essential oils were injected splitless into a Varian CP-3800 GC equipped with a polar column (HP-INNOWAX; 30 m×0.53 mm×1.0 μm film thickness; Agilent Technologies, Wilmington, Del., USA) and a 1:1 effluent splitter that allowed simultaneous flame ionization detection (FID) and electroantennographic detection (EAD) of either a yellowjacket or paper wasp worker antenna to the separated volatile compounds. Helium was used as the carrier gas, and the injector and detector temperatures were 250° C. and 300° C., respectively. Column temperature was 50° C. for 1 min, rising to 240° C. at 10° C./min, and then held for 10 min. The outlet for the EAD was held in a humidified air stream flowing at 0.5 m/sec over the antennal preparation. EAD recordings were made using silver wire-glass capillary electrodes filled with Beadle-Ephrussi Ringer on freshly cut antennae. The antennal signals were stored and analyzed on a PC equipped with a serial IDAC interface box and the program EAD ver. 2.5 (Syntech, Hilversum, The Netherlands).
Compounds were identified by comparison of retention times with those of authentic standards and with mass spectra of standards.

[2] = tested on: Paper wasps (mainly Polistes dominulus, plus a few of P. aurifer); assay: Field trapping, Rescue W•H•Y traps baited with attractant AA/2MB: captures of paper wasps; assay type: in vivo; conditions: for Mean/trap/visit ± SE Paper wasps: attractant AA/2MB alone (row AA/2MB) or plus chemical, N 9; for decrease of trap catches of paper wasps: Experiment 9
Procedure: (§1) Eleven field trapping experiments were carried out from late August to mid-October 2009 in residential and woody areas around Spokane, Wash., USA, mostly using the trap known by the designation Rescue® W•H•Y (except on one occasion that Rescue® Reusable Yellowjacket Traps were used for a natural food attractant; see below for details). The commercial W•H•Y trap has a top chamber and a bottom chamber and is described in U.S. Patent Application Publication No. 2009/0151228. The top chamber is baited with two attractants—one of which is a solid contained in a vial (2-methyl-1-butanol), and the other is a liquid mixed with water (acetic acid). The bottom chamber is baited with a liquid attractant (heptyl butyrate) poured onto a cotton pad. Separation of the two types of attractants (otherwise antagonistic to each other when released from the same chamber) in two chambers creates two focal attraction sources from one trap for different species of wasps, hornets, and yellowjackets. […] In a special occasion, the commercial Rescue® Reusable Yellowjacket Traps were each baited with 10 g of chopped bacon (loaded into a cartridge) as a natural protein food attractant. Traps were hung 1.5-2.0 m above the ground on either fences or tree branches ca. 5 m apart between each trap and at least 15 m between sets. For each trapping experiment, three sets of traps (i.e., three physical replicates of each treatment) were deployed with their initial trap positions within each set being randomized. To minimize positional effects and obtain more replications, wasp collections and trap re-randomization were carried out when 5-10 wasps were caught in the best traps. Each replicate lasted several days depending on wasp flight activity. Captured wasps were removed from the traps and kept in the zip-bags before returning to the laboratory for recording of the species, gender status, and catch. Repellent candidates (individuals or mixtures) were released from polyethylene bags (3×5 cm; with a fabric felt) with various thicknesses from 2-12 mil (see release rates listed in tables); they were employed inside the same trap chamber as the attractant.
(§2) Experiment 1 tested five individual essential oils (pennyroyal, lemongrass, peppermint, clove, and citronella) and two known mosquito repellents (i.e., major components of catnip oil), E/Z-nepetalactone and Z/E-nepetalactone plus a blank control against a mixture of attractant [acetic acid (AA) and 2-methyl-1-butanol (2 MB)] using the W•H•Y traps (both attractant and repellent candidates were released from the top chamber) from for eight consecutive days from August to early September. Experiment 2 tested nine individual essential oils (ylang ylang, vetiver, myrrh, patchouli, geranium, eucalyptus, camphor, spearmint, and wintergreen) plus a blank control against a mixture of attractant (AA+2 MB) using the W•H•Y traps (both attractant and repellent candidates were released from the top chamber) for eight consecutive days from late August to early September. Experiment 3 tested seven individual essential oils (Roman chamomile, sage, fennel seed, rosemary, thyme, anise, and lavender) plus a blank control against a mixture of attractant (AA+2 MB) using the W•H•Y traps (both attractant and repellent candidates were released from the top chamber) for eight consecutive days from late August to early September. Experiment 4 tested two essential oil mixtures (3EO-mix: clove, geranium, and lemongrass in ca. 1:1:1 ratio; and 4EO-mix: clove, geranium, lemongrass, and rosemary in ca. 1:1:1:1 ratio) plus a blank control against a mixture of attractant (AA+2 MB) using the W•H•Y traps (both attractant and repellent candidates were released from the top chamber) for 13 consecutive days in September; the essential oil mixtures alone without attractant were tested in the same experiment.

[3] = tested on: Yellowjackets (mainly Vespula pensylvanica (ca. 90%), plus V. vulgaris, V. germanica, and Dolichovespula maculata); assay: Field trapping, Rescue W•H•Y traps baited with attractant AA/2MB: captures of yellowjackets; assay type: in vivo; conditions: for Mean/trap/visit ± SE Yellowjackets: attractant AA/2MB alone (row AA/2MB) or plus chemical, N 9; for reduction of trap catches of yellowjackets: Experiment 9
Procedure: as §1, §2

[4] = tested on: vespid wasps (paper wasps, hornets and yellowjackets); assay: Field trapping experiments, repellency stated for vespid wasps as a whole (yellowjackets and paper wasps; summaries); assay type: in vivo, Vespula pensylvanica; Polistes dominulus; conditions: Experiment 9; AA/2 MB
Procedure: as §1, §2

[5] = V. pensylvanica and P. dominulus worker antennae
[6] = Table 7, Experiment 8, 13 days in September
[7] = Table 9, Experiment 10, 18 days end of September through mid-October
[8] = Table 8, Experiment 9, 13 days in September

CC12CCC(CC1)C(C)(C)O2 [1,8-Cineole, 1,8-cineole]
antennal (EAD) response to component of rosemary oil [1]: significant EAD-responses | antennal (EAD) response to component of lavender oil [1, 5]: strong and repeatable antennal responses | antennal (EAD) response to component of sage oil [1, 5]: strong and repeatable antennal responses | antennal (EAD) response to component of spearmint oil [1]: significant and consistent EAD-responses | Mean/trap/visit ± SE Paper wasps [2, 6]: 4.6 ± 1.8 a wasps/trap/visit | repellency at the doses tested ([3]; Experiment 8, AA/2 MB): not significantly repellent | Mean/trap/visit ± SE Yellowjackets [3, 6]: 18.2 ± 4.1 b wasps/trap/visit

CCCCCC(O)CC (stereo not shown) [3-Octanol, 3-octanol]
antennal (EAD) response to component of pennyroyal oil [1]: significant and consistent EAD-responses | antennal (EAD) response to component of spearmint oil [1]: significant and consistent EAD-responses | Mean/trap/visit ± SE Paper wasps [2, 7]: 1.1 ± 0.8 a wasps/trap/visit | Mean/trap/visit ± SE Yellowjackets [3, 7]: 6.9 ± 2.4 ab wasps/trap/visit

CCCCCC(=O)CCC [4-nonanone]
antennal (EAD) response to component of lemongrass oil [1]: strongly responded

CC(=O)CCC=C(C)C [6-Methyl-5-hepten-2-one, 6-methyl-5-hepten-2-one]
antennal (EAD) response to component of lemongrass oil [1]: strongly responded | Mean/trap/visit ± SE Paper wasps [2, 6]: 4.8 ± 2.3 a wasps/trap/visit | repellency at the doses tested ([3]; Experiment 8, AA/2 MB): not significantly repellent | Mean/trap/visit ± SE Yellowjackets [3, 6]: 21.9 ± 3.8 b wasps/trap/visit

CC1=CC(=O)[C@H]2C[C@@H]1C2(C)C [(−)-Verbenone, (−)-verbenone]
activity at doses tested [4]: inactive | Mean/trap/visit ± SE Paper wasps [2, 8]: 2.9 ± 0.9 ab wasps/trap/visit | Mean/trap/visit ± SE Yellowjackets [3, 8]: 18.7 ± 5.9 b wasps/trap/visit

CC(=O)OCc1ccccc1 [Benzyl acetate, benzyl acetate]
antennal (EAD) response to component of ylang ylang oil [1, 5]: strong and repeatable antennal responses | Mean/trap/visit ± SE Paper wasps [2, 7]: 0.9 ± 0.5 a wasps/trap/visit | Mean/trap/visit ± SE Yellowjackets [3, 7]: 8.2 ± 3.0 abc wasps/trap/visit

CC(C)=CCCC(C)CC=O (stereo not shown) [Citronellal, citronellal]
antennal (EAD) response to component of citronella oil [1, 5]: strong and repeatable antennal responses | Mean/trap/visit ± SE Paper wasps [2, 7]: 0.4 ± 0.2 a wasps/trap/visit | Mean/trap/visit ± SE Yellowjackets [3, 7]: 11.4 ± 5.2 bc wasps/trap/visit

CC(C)=CCC/C(C)=C/C=O [E-citral]
antennal (EAD) response to component of lemongrass oil [1]: strongly responded

C=CCc1ccc(O)c(OC)c1 [Eugenol, eugenol]
antennal (EAD) response to component of clove oil [1, 5]: strong and repeatable antennal responses | decrease of trap catches of paper wasps ([2]; AA/2 MB): 58% | Mean/trap/visit ± SE Paper wasps [2, 8]: 2.0 ± 0.5 ab wasps/trap/visit | reduction of trap catches of yellowjackets ([3]; AA/2 MB): > 95% | Mean/trap/visit ± SE Yellowjackets [3, 8]: 1.7 ± 0.7 a wasps/trap/visit

CC(C)=CCC/C(C)=C/COC=O [Geranyl formate, geranyl formate]
antennal (EAD) response to component of geranium oil [1]: significant and consistent EAD-responses | Mean/trap/visit ± SE Paper wasps [2, 6]: 5.8 ± 2.7 a wasps/trap/visit | repellency at the doses tested ([3]; Experiment 8, AA/2 MB): not significantly repellent | Mean/trap/visit ± SE Yellowjackets [3, 6]: 28.2 ± 7.0 b wasps/trap/visit

C=CC(C)(O)CCC=C(C)C (stereo not shown) [Linalool, linalool]
antennal (EAD) response to component of lavender oil [1, 5]: strong and repeatable antennal responses | antennal (EAD) response to component of ylang ylang oil [1, 5]: strong and repeatable antennal responses | antennal (EAD) response to component of lemongrass oil [1]: strongly responded | Mean/trap/visit ± SE Paper wasps [2, 6]: 5.2 ± 3.5 a wasps/trap/visit | repellency at the doses tested ([3]; Experiment 8, AA/2 MB): not significantly repellent | Mean/trap/visit ± SE Yellowjackets [3, 6]: 23.9 ± 4.0 b wasps/trap/visit

CC(C)[C@@H]1CC[C@@H](C)CC1=O [Menthone, menthone]
antennal (EAD) response to component of geranium oil [1]: significant and consistent EAD-responses | antennal (EAD) response to component of pennyroyal oil [1]: significant and consistent EAD-responses | trap catch reduction to the paper wasps ([2]; Experiment 8, AA/2 MB, not statistically different from the attractant alone): > 50% | Mean/trap/visit ± SE Paper wasps [2, 6]: 2.1 ± 1.3 a wasps/trap/visit | yellowjackets caught, attractant plus compound versus attractant alone ([3]; Experiment 8, AA/2 MB): four times less | Mean/trap/visit ± SE Yellowjackets [3, 6]: 7.7 ± 3.4 a wasps/trap/visit

COC(=O)c1ccccc1 [Methyl benzoate, methyl benzoate]
antennal (EAD) response to component of ylang ylang oil [1, 5]: strong and repeatable antennal responses | Mean/trap/visit ± SE Paper wasps [2, 7]: 1.9 ± 0.8 ab wasps/trap/visit | Mean/trap/visit ± SE Yellowjackets [3, 7]: 5.2 ± 2.2 ab wasps/trap/visit

COC(=O)c1ccccc1O [Methyl salicylate, methyl salicylate]
antennal (EAD) response to component of wintergreen oil ([1]; V. pensylvanica antennae, FIG. 12): strong antennal response | Mean/trap/visit ± SE Paper wasps [2, 7]: 0.9 ± 0.5 a wasps/trap/visit | Mean/trap/visit ± SE Yellowjackets [3, 7]: 4.7 ± 2.0 ab wasps/trap/visit

CC(C)=C1CC[C@@H](C)CC1=O [Pulegone, pulegone]
antennal (EAD) response to component of pennyroyal oil [1]: significant and consistent EAD-responses | Mean/trap/visit ± SE Paper wasps [2, 7]: 0.2 ± 0.1 a wasps/trap/visit | Mean/trap/visit ± SE Yellowjackets [3, 7]: 6.4 ± 1.8 abc wasps/trap/visit

CC(C)=CCC/C(C)=C\C=O [Z-citral]
antennal (EAD) response to component of lemongrass oil [1]: strongly responded

CC(C)=CCCC(C)CCOC=O (stereo not shown) [citronyl formate, citronellyl formate]
antennal (EAD) response to component of geranium oil [1]: significant and consistent EAD-responses

C=C(C)[C@H]1CC=C(C)C(=O)C1 [d-Carvone, d-carvone]
antennal (EAD) response to component of spearmint oil [1]: significant and consistent EAD-responses | Mean/trap/visit ± SE Paper wasps [2, 7]: 0.9 ± 0.5 a wasps/trap/visit | Mean/trap/visit ± SE Yellowjackets [3, 7]: 4.9 ± 2.2 ab wasps/trap/visit

Cc1ccc(C(C)C)cc1 [p-cymene]
antennal (EAD) response to component of sage oil [1, 5]: strong and repeatable antennal responses

CC1=CCC2CC1C2(C)C (stereo not drawn) [α-pinene]
antennal (EAD) response to component of rosemary oil [1]: significant EAD-responses | antennal (EAD) response to component of sage oil [1, 5]: strong and repeatable antennal responses

C=C1CC[C@@H]2[C@H]1[C@H]1[C@H](C(C)C)CC[C@]12C [β-bourberene]
antennal (EAD) response to component of geranium oil [1]: significant and consistent EAD-responses

E/Z-citral
decrease of trap catches of paper wasps ([2]; AA/2 MB): 88% | Mean/trap/visit ± SE Paper wasps [2, 8]: 0.6 ± 0.3 a wasps/trap/visit | reduction of trap catches of yellowjackets ([3]; AA/2 MB): more than 70% | Mean/trap/visit ± SE Yellowjackets [3, 8]: 11.6 ± 5.8 a wasps/trap/visit

cis/trans-rose oxides
antennal (EAD) response to component of geranium oil [1]: significant and consistent EAD-responses

α/β-thujone
antennal (EAD) response to component of sage oil [1, 5]: strong and repeatable antennal responses | Mean/trap/visit ± SE Paper wasps [2, 7]: 0.2 ± 0.1 a wasps/trap/visit | Mean/trap/visit ± SE Yellowjackets [3, 7]: 4.9 ± 1.6 ab wasps/trap/visit
